Entries after “also recorded” stand apart in the source; their conditions may differ. Starred links: 1 amine or outer side, 2 acyl side, 3 side chain; linkers in the order of their positions; H or OH if unused. Positions of bridges follow the written chain, without caps; N, C: chain ends. Non-standard residues stand in square brackets, D forms with d. Residues, ends and D or L forms follow the SMILES beside them. *: point of attachment. X1 = NC1=N[C@@H]([C@H](N[*:1])C(=O)[*:2])C[C@H](O)N1; ΔAla(Z-3-ureido) = NC(=O)N/C=C(\N)C(=O)O; β3hOrn = NCCC[C@H](N)CC(=O)*; Dap = NC[C@H](N)C(=O)O
Legend:
[1] = tested on: Cy3-S13 / Cy5-L1 (T202C) ribosome complexes; test: Single-molecule L1-S13 FRET assay (ribosome conformational states); format: biochemical, E. coli
Description: Generation of Site-Specifically Labeled 30S Subunits and 50S Subunits.
Ribosomal protein S13 was PCR-cloned from E. coli strain K12 genomic DNA into the pPROEX HTb vector with a TEV-cleavable His6-tag and a 12-residue peptide encoding the S6 epitope for the Sfp phosphopantetheinyl transferase reaction (Yin 2006), fused at the N terminus. Following transformation of this plasmid into an E. coli ΔS13 knockout strain (Cukras 2005), cells were cultured and ribosomes were harvested as previously described (Wang 2011). Pure 30S subunits were isolated via sucrose gradient centrifugation in a low magnesium buffer (20 mM HEPES pH 7.5, 50 mM KCl, 10 mM NH4Cl, 0.5 mM EDTA, 6 mM BME, 1 mM MgCl2). 30S subunits containing Sfp-tagged S13 were isolated from this population by cobalt affinity chromatography (Clontech). Subsequently, the Sfp tag was enzymatically labeled and the His6-tag was enzymatically removed in a buffer containing 20 mM HEPES, pH 7.5, 100 mM KCl, 10 mM MgCl, and 6 mM BME. 20 μM N-Sfp-S13 30S subunits, 5 μM TEV protease, 250 μM Cy3-CoA and 25 μM Sfp were incubated for 24 h at 18° C. Sfp enzyme, TEV protease and unbound Cy3-CoA were then removed by filtration over a 100K membrane (Millipore). Prior to 70S complex formation, ribosomes were buffer exchanged into Tris-polymix buffer (Munro 2010c). 50S subunits labeled with Cy5-L1 (T202C) were prepared and purified as previously described (Munro 2010b).
Preparation of L1-S13 FRET Ribosome Complexes with tRNA^fMet or tRNA^Phe in the P Site.
Cy3-S13 30S and Cy5-L1 50S subunits were heat activated at 42° C. for 10 min in Tris-polymix Mg^2+ buffer and ribosomes were then initiated with fMet-tRNA^fMet or NAc-Phe-tRNA^Phe as previously described (Munro 2010c).
Single-Molecule L1-S13 FRET Assay.
All single-molecule FRET experiments were performed at room temperature in Tris-Polymix with 5 mM Mg^2+ buffer as previously described (Wang 2011), where oxygen scavenging and triplet-state quenching systems were employed (Dave 2009). Following surface immobilization (Munro 2007), the ribosome-bound, P-site tRNA was deacylated by incubation with 2 mM puromycin for 10 min at room temperature. The smFRET data were acquired by directly exciting the Cy3 fluorophore at 532 nm (LaserQuantum) while Cy3 and Cy5 intensities were simultaneously recorded in Metamorph (Molecular Devices) with 40 ms integration time. The data were analyzed in MATLAB (MathWorks) and plotted in Origin (OriginLab) as previously described (Munro 2007).

[2] = tested on: wild-type ribosomes; test: Single-molecule FRET tRNA incorporation (aa-tRNA selection) assay, wild-type ribosomes; format: biochemical, E. coli
Description: (§1) Single-Molecule FRET tRNA Incorporation Assay.
The process of tRNA selection on the ribosome was monitored using single-molecule FRET by stropped-flow injection of a 10 nM solution of ternary complex (EF-Tu(GTP)·aa-tRNA) containing Phe-tRNA^Phe (Cy5-acp^3U47) to surface-immobilized ribosome complexes containing deacylated tRNA^fMet (Cy3-s^4U8) in the P site as previously described (Geggier 2010). Fluorescence and FRET traces were extracted from video and selected for analysis using automated analysis software implemented in MATLAB (MathWorks) using the segmental k-means algorithm (Qin, 1996). Complete accommodation of Phe-tRNA^Phe into the A site was marked by the first observation of a 400 ms dwell in a high ([…]) FRET state, structurally assigned to the “classical” pre-translocation complex configuration through previous investigations (Geggier 2010). Individual experiments, in which approximately 100 accommodation events were obtained, were performed in triplicate. The mean extent of accommodation and standard deviations are plotted as a function of time. Wild type and mutant ribosomes for these experiments were purified as previously described (Feldman 2010).

[3] = tested on: A1408G mutant ribosomes; test: Single-molecule FRET tRNA incorporation (aa-tRNA selection) assay, A1408G mutant ribosomes; format: biochemical, E. coli
Text: (§2) Purification of A1408G Ribosomes.
(§3) Wild-type ribosomes and ribosomes bearing A1408G mutation were purified from a Δ7prrn E. coli MG1655 strain (RecA-) for single-molecule translocation and recycling experiments. The A1408G neomycin resistance mutation was introduced into a […] (KanR, SpecR) plasmid containing an rrnB operon (Komoda 2006) using Quickchange II site-directed mutagenesis (Stratagene). Wild-type and A1408G containing pRB102 plasmids (Komoda 2006) were then swapped into a Δ7prrn E. coli MG1655 (pKK3535, AmpR; ptRNA67, SpecR) strain. Tightly-coupled 70S ribosomes were purified from these strains in Tris-polymix buffer as previously described (Munro 2007).
as §1
The process of tRNA selection on the ribosome was monitored using single-molecule FRET by stropped-flow injection of a 10 nM solution of ternary complex (EF-Tu(GTP)·aa-tRNA) containing Phe-tRNA^Phe (Cy5-acp^3U47) to surface-immobilized ribosome complexes containing deacylated tRNA^fMet (Cy3-s^4U8) in the P site as previously described (Geggier 2010). Fluorescence and FRET traces were extracted from video and selected for analysis using automated analysis software implemented in MATLAB (MathWorks) using the segmental k-means algorithm (Qin, 1996). […]

[4] = tested on: wild-type pre-translocation ribosome complexes; test: Single-molecule translocation assay (EF-G catalyzed), wild-type ribosome complexes; format: biochemical, E. coli; conditions: wild-type ribosomes
Description: (§4) Single-Molecule Translocation Assay.
(§5) Fluorescence-based, single-molecule translocation assays were carried out as previously described (Munro 2010c) on either wild-type or A1408G mutant pre-translocation ribosome complexes. Experiments were performed in Tris-polymix buffer (pH 7.5, 5 mM Mg(OAc)2) and analyzed as previously described (Munro 2010c; Wang 2011), plotting the fraction of translocating molecules as a function of time.

[5] = tested on: A1408G mutant pre-translocation ribosome complexes; test: Single-molecule translocation assay (EF-G catalyzed), A1408G ribosome complexes; format: biochemical, E. coli
Text: as §2, §3, §4, §5

[6] = tested on: wild-type 70S ribosome complexes; test: Single-molecule ribosome recycling assay (loss of Cy5-labeled L1 fluorescence), wild-type; format: biochemical, E. coli; conditions: wild-type ribosomes; neomycin 0.1-100 μM
Text: (§6) As described in the examples, this invention provides single-molecule assays for ribosome recycling which comprises surface-immobilizing a ribosome labeled on the 50S subunit in the presence of tRNA, RRF and EF-G under translation conditions; and monitoring changes in the signal from the label, wherein a change in the signal indicates recycling or lack thereof. For example, this assay can be conducted in solution or using smFRET like imaging techniques (following fluorescence decay), with the label on the ribosome being a fluorophore.
(§7) Single-Molecule Fluorescence Experiments.
(§8) All single-molecule fluorescence experiments were performed at room temperature in an MES-Polymix buffer that resembled the crystallization condition (50 mM MES, pH 6.5, 5.0 mM MgCl2, 350 mM NH4Cl, 5.0 mM putrescine, 5.0 mM spermidine, 5 mM (3-mercaptoethanol and 0.5 mM EDTA). Oxygen scavenging and triplet-state quenching systems used were as previously described (Dave 2009). The smFRET data were acquired with Metamorph (Molecular Device), and analyzed in MATLAB (Mathwork) and QuB (www.qub.buffalo.edu) as previously described (Munro 2010a,b). Subunit release was monitored by directly exciting the Cy5 fluorophore within surface-immobilized ribosome complexes (Coherent) at 10 mW laser power. […] Changes in fluorescence intensity were analyzed and plotted in Origin (OriginLab).

[7] = tested on: A1408G mutant ribosomes; test: Single-molecule ribosome recycling assay (loss of Cy5-labeled L1 fluorescence), A1408G; format: biochemical, E. coli; conditions: neomycin 0.1-100 μM
Text: as §6
Purification of A1408G Ribosomes. […]
as §7, §8

[8] = tested on: wild-type pre-translocation ribosome complexes; conditions: Feldman 2010; cited from earlier work
[9] = deacylated tRNA^fMet in the P site, no A-site tRNA, EF-G with GDPNP

NCCC[C@H](N)CC(=O)N[C@H]1CNC(=O)[C@H]([C@H]2C[C@H](O)NC(N)=N2)NC(=O)/C(=C/NC(N)=O)NC(=O)[C@H](CO)NC(=O)[C@H](CO)NC1=O [viomycin] (β3hOrn-[Dap]SS[ΔAla(Z-3-ureido)][X1]; lactam 1-C)
FRET state stabilized (L1-S13) [1, 9]: high-FRET state was also favored; also recorded: rotated state

EF-G: GTPase elongation factor-G
FRET state stabilized (L1-S13) [1, 9]: high-FRET state was stabilized; also recorded: high-FRET, rotated state

RRF: ribosome recycling factor, purified from E. coli, C-terminal hexa-histidine tagged
FRET state stabilized (L1-S13) [1, 9]: high-FRET state was stabilized; also recorded: high-FRET rotated state

neomycin
selection of cognate tRNA ([2]; 100 nM neomycin, cognate (UUC) codon): negligible effects | rates of near-cognate aa-tRNA accommodation ([2]; 100 nM neomycin, near-cognate (UCU) codon): substantially increased | selection of both cognate and near-cognate tRNA ([2]; 20 μM neomycin): significantly attenuated | miscoding effects / incorporation of near-cognate tRNA ([3]; 100 nM neomycin): reduced; also recorded: almost entirely suppressed | selection (incorporation) of cognate and near-cognate tRNA ([3]; 20 μM neomycin): both reduced; also recorded: Inhibition persisted | concentration at which substrate translocation is blocked [4]: above 1 μM | EF-G catalyzed translocation ([5]; A1408G mutant background, neomycin 0.01-100 μM, normalized to no drug): inhibits EF-G catalyzed translocation in a concentration dependent manner | concentration at which substrate translocation is blocked ([5]; A1408G ribosomes): above 1 μM | ribosome recycling mediated by RRF and EF-G [6]: inhibited ribosome recycling | ribosome recycling catalyzed by RRF, EF-G and GTP [7]: inhibits the process of ribosome recycling catalyzed by RRF, EF-G and GTP in a concentration-dependent manner; also recorded: inhibited ribosome recycling | ribosome conformation stabilized (L1-S13 FRET) ([1]; figure title, tRNA^fMet or tRNA^Phe in the P site): stabilizes an intermediate conformation of the ribosome | FRET state stabilized (L1-S13) ([1]; higher neomycin concentrations (>1 μM), deacylated tRNA^fMet in the P site): stabilized a ribosome configuration exhibiting an intermediate FRET value | FRET state favored (L1-S13) ([1]; low neomycin concentrations (<100 nM), deacylated tRNA^fMet in the P site): low-FRET state was favored | neomycin concentration inhibiting translocation as potently as viomycin [8]: higher than 100 nM

Reference: patent US9441263B2, “Ribosomal targets for antibiotic drug discovery” (Cornell University, priority 2011, dated 2016)
